One may read the IC50 as the point on the concentration scale where inhibition reaches its midpoint. Lower therefore signals greater potency in that assay.

The target in this experiment is human lung tryptase. In words: β-Tryptase In-Vitro Enzyme Assay. In kind it is biochemical. To be noted: human lung tryptase 1 nM, substrate H-D-HHT-Ala-Arg-pNa 500 μM, pH 7.4, room temperature. As for the experimental part:
The β-tryptase assay was conducted with human lung tryptase (Cortex Biochem #CP3033) in an aqueous buffer (10 mM Tris, 10 mM Hepes, 150 mM NaCl, 0.1% PEG 8000, pH 7.4) using the chromogenic substrate H-D-HHT-Ala-Arg-pNa. […] Percent inhibition was calculated by comparing the initial reaction velocity of samples without inhibitor to those with inhibitor. The initial reaction velocities were analyzed using Microsoft Excel.
Take `Cn1cnc(S(=O)(=O)N2CC3(CCN(C(=O)c4ccc(C#Cc5ccccc5)o4)CC3)c3cc(CN)ccc32)c1` [Cpd 336, 1-(5-phenylethynyl-furan-2-yl)carbonyl-1′-(1-methyl-imidazol-4-yl)sulfonyl-5′-aminomethyl-spiro[piperidine-4,3′-(2H)-indole]]: the IC50 stood at 28 nM. With `NCc1ccc2c(c1)C1(CCN(C(=O)c3cc(Br)c(Br)s3)CC1)CN2S(=O)(=O)O` [Cpd 351, 1-(4,5-dibromo-thien-2-yl)carbonyl-1′-hydroxysulfonyl-5′-aminomethyl-spiro[piperidine-4,3′-(2H)-indole]], half-maximal inhibition (IC50) required 68 nM. In turn, `NCc1ccc2c(c1)C1(CCN(C(=O)CCc3cccc(Cl)c3)CC1)CO2` [Cpd 83, 1-(3-chloro-phenethyl)carbonyl-5′-aminomethyl-spiro[piperidine-4,3′-(2H)-benzo[b]furan]] showed a 50% inhibitory concentration (IC50) of 4300 nM. `CSc1sc(C(=O)N2CCC3(CC2)COc2ccc(CN)cc23)cc1C#N` [Cpd 258, 1-(4-cyano-5-methylthio-thien-2-yl)carbonyl-5′-aminomethyl-spiro[piperidine-4,3′-(2H)-benzo[b]furan]]: 28 nM corresponded to half-maximal inhibition (IC50).

`CC(C)(C)c1ccc(OCc2ccc(C(=O)N3CCC4(CC3)COc3ccc(CN)cc34)o2)cc1` [Cpd 178, 1-[5-(4-tert-butyl-phenoxymethyl)-furan-2-yl]carbonyl-5′-aminomethyl-spiro[piperidine-4,3′-(2H)-benzo[b]furan]] displayed an IC50 of 440 nM. Compared with the last compound, the IC50 is about 16-fold higher. The value for `NCc1ccc2c(c1)C1(CCN(C(=O)c3ccc(C#Cc4ccccc4)o3)CC1)CN2S(=O)(=O)c1ccsc1` [Cpd 359, 1-(5-phenylethynyl-furan-2-yl)carbonyl-1′-thien-3-ylsulfonyl-5′-aminomethyl-spiro[piperidine-4,3′-(2H)-indole]] was 15 nM.

The compound `NCc1ccc2c(c1)C1(CCN(C(=O)c3ccc(F)c(C(F)(F)F)c3)CC1)CO2` [Cpd 74, 1-(3-trifluoromethyl-4-fluoro-phenyl)carbonyl-5′-aminomethyl-spiro[piperidine-4,3′-(2H)-benzo[b]furan]] showed an IC50 of 160 nM. Compared with the last compound, the IC50 is about 11-fold higher. As for `NCc1ccc2c(c1)C1(CCN(C(=O)/C=C/c3cccc(Cl)c3)CC1)CO2` [Cpd 164, (E)-1-(3-chloro-phenylethenyl)carbonyl-5′-aminomethyl-spiro[piperidine-4,3′-(2H)-benzo[b]furan]], half-maximal inhibition (IC50) required 140 nM.

On to `NCc1ccc2c(c1)C1(CCN(C(=O)Cc3ccc(F)c(F)c3)CC1)CO2` [Cpd 82, 1-(3,4-difluoro-benzyl)carbonyl-5′-aminomethyl-spiro[piperidine-4,3′-(2H)-benzo[b]furan]], for which the IC50 was 1300 nM. This IC50 lies about 9.3-fold higher than the previous one. Under `NCc1ccc2c(c1)C1(CCN(C(=O)/C=C/c3ccccc3Br)CC1)CO2` [Cpd 199, (E)-1-(2-bromo-phenylethenyl)carbonyl-5′-aminomethyl-spiro[piperidine-4,3′-(2H)-benzo[b]furan]] stands 180 nM; under `CSc1sc(C(=O)N2CCC3(CC2)COc2ccc(CN)cc23)c(Cl)c1S(=O)(=O)C(C)C` [Cpd 157, 1-(3-chloro-4-isopropylsulfonyl-5-methylthio-thien-2-yl)carbonyl-5′-aminomethyl-spiro[piperidine-4,3′-(2H)-benzo[b]furan]], 17 nM; under `NCc1ccc2c(c1)C1(CCN(C(=O)/C=C/c3ccccc3F)CC1)CO2` [Cpd 309, (E)-1-(2-fluoro-phenylethenyl)carbonyl-5′-aminomethyl-spiro[piperidine-4,3′-(2H)-benzo[b]furan]], 100 nM.

For the compound `NCc1ccc2c(c1)C1(CCN(C(=O)/C=C/c3ccccn3)CC1)CO2` [Cpd 252, (E)-1-(pyridin-2-ylethenyl)carbonyl-5′-aminomethyl-spiro[piperidine-4,3′-(2H)-benzo[b]furan]], half-maximal inhibition (IC50) required 1600 nM. `NCc1cc2c(cc1F)OCC21CCN(C(=O)c2ccc(C#Cc3ccccc3)o2)CC1` [Cpd 311, 1-(5-phenylethynyl-furan-2-yl)carbonyl-5′-aminomethyl-6′-fluoro-spiro[piperidine-4,3′-(2H)-benzo[b]furan]] came in with an IC50 of 39 nM.

The values are drawn from patent publication US8158792B2, “Spiropiperidines for use as tryptase inhibitors” (Janssen Pharmaceutica N.V., priority 2007, dated 2012).
